The results in this text go back to patent US7868135B2, “Compositions of lipopeptide antibiotic derivatives and methods of use thereof” (priority 2003, dated 2011).

SMILES strings stand for the structures. Starred links: 1 amine or outer side, 2 acyl side, 3 side chain; linkers in the order of their positions; H or OH if unused. Positions of bridges follow the written chain, without caps; N, C: chain ends. Non-standard residues stand in square brackets, D forms with d. Residues, ends and D or L forms follow the SMILES beside them. Groups on a side chain read outwards from the residue. ξ: configuration not given here. *: point of attachment. X33 = CCCCCCCCCCCC(=O)Nc1cc(NC(=O)CCCCCCCCCCC)cc(C(=O)*)c1; Adamantane1carbonyl = O=C(C12CC3CC(CC(C3)C1)C2)*; X34 = CCCCCC(=O)Nc1cc(NC(=O)CCCCC)cc(C(=O)*)c1; X29 = COCCOCCOCC(=O)NC(C)C(N[*:1])C(=O)[*:2]; X3 = CC(NC(=O)[C@H](N)CN)C(N[*:1])C(=O)[*:2]; ξAbu(βξ-NH2) = CC(N[*:3])C(N[*:1])C(=O)[*:2]; Benzoyl(3-OPh) = O=C(c1cccc(Oc2ccccc2)c1)*; Benzoyl(4-tBu) = CC(C)(C)c1ccc(C(=O)*)cc1; NH(2-CF3-phenyl) = FC(F)(F)c1ccccc1N*; Pentadecanoyl = CCCCCCCCCCCCCCC(=O)*; ξAsp(βξ-Me) = CC(C(=O)O)C(N)C(=O)O; Tridecanoyl = CCCCCCCCCCCCC(=O)*; X13 = O=C(CCCCCCCCCCOc1ccccc1)*; ξAbu(3ξ-NH2) = CC(N)C(N)C(=O)O; Undecanoyl = CCCCCCCCCCC(=O)*; X9 = O=C(c1ccccc1Cc1ccccc1)*; Pip = O=C(O)[CH]1CCCCN1; ξD = NC(CC(=O)O)C(=O)O; ξPip = O=C(O)C1CCCCN1; CO = O=C([*:1])[*:2]; ξV = CC(C)C(N)C(=O)O; ξP = O=C(O)C1CCCN1; OtBu = CC(C)(C)O*

The assay concerns Staphylococcus aureus (MSSA). Conditions: 24 h. Put shortly: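 Broth microdilution MIC per NCCLS M7-A6 with doubling serial dilutions, in cation-adjusted Mueller-Hinton broth supplemented with 0.625 mM calcium.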
Broadly, the MIC is the smallest concentration in the dilution series that meets the test's criterion for growth inhibition. For the compound `CCCCCCCCCCCCC(=O)N[C@@H](CC(=O)OC(C)(C)C)C(=O)NC(CC(=O)O)C(=O)NC1C(=O)N2CCCCC2C(=O)NC(C(C)C(=O)O)C(=O)NC(CC(=O)O)C(=O)NCC(=O)NC(CC(=O)O)C(=O)NCC(=O)NC(C(C)N)C(=O)NC(C(C)C)C(=O)N2CCCC2C(=O)NC1C` (stereo partly drawn) [Compound 315, C13-(Asp-(OtBu))-Amphomycin] (Tridecanoyl-D(OtBu)[ξD][ξAbu(βξ-NH2)][ξPip][ξAsp(βξ-Me)][ξD]G[ξD]G[ξAbu(3ξ-NH2)][ξV][ξP]; lactam 3-C), the minimal inhibitory concentration (MIC) was found to be 1 µg/mL. Take `CCCCCCCCCCC(=O)N[C@@H](CC(=O)OC)C(=O)NC(CC(=O)O)C(=O)NC1C(=O)N2CCCCC2C(=O)NC(C(C)C(=O)O)C(=O)NC(CC(=O)O)C(=O)NCC(=O)NC(CC(=O)O)C(=O)NCC(=O)NC(C(C)N)C(=O)NC(C(C)C)C(=O)N2CCCC2C(=O)NC1C` (stereo partly drawn) [Compound 316, C11-(Asp-(OMe))-Amphomycin] (Undecanoyl-D(OMe)[ξD][ξAbu(βξ-NH2)][ξPip][ξAsp(βξ-Me)][ξD]G[ξD]G[ξAbu(3ξ-NH2)][ξV][ξP]; lactam 3-C): the minimum inhibitory concentration (MIC) was >64 µg/mL. The value for `CCCCCCCCCCCCCCC(=O)N[C@H](CC(=O)OC)C(=O)NC(CC(=O)O)C(=O)NC1C(=O)N2CCCCC2C(=O)NC(C(C)C(=O)O)C(=O)NC(CC(=O)O)C(=O)NCC(=O)NC(CC(=O)O)C(=O)NCC(=O)NC(C(C)N)C(=O)NC(C(C)C)C(=O)N2CCCC2C(=O)NC1C` (stereo partly drawn) [Compound 317, C15-(Asp-(Ome))-Amphomycin] (Pentadecanoyl-[dD](OMe)[ξD][ξAbu(βξ-NH2)][ξPip][ξAsp(βξ-Me)][ξD]G[ξD]G[ξAbu(3ξ-NH2)][ξV][ξP]; lactam 3-C) was 1 µg/mL; that for `CCCCCCCCCCCCCCC(=O)NC(CC(=O)O)C(=O)NC1C(=O)N2CCCCC2C(=O)NC(C(C)C(=O)O)C(=O)NC(CC(=O)O)C(=O)NCC(=O)NC(CC(=O)O)C(=O)NCC(=O)NC(C(C)NC(=O)Nc2ccccc2C(F)(F)F)C(=O)NC(C(C)C)C(=O)N2CCCC2C(=O)NC1C` (stereo not drawn) [Compound 318, C15-Amphomycin-9-C(═O)—NH—(O—CF3-Phenyl)] (Pentadecanoyl-D[ξAbu(βξ-NH2)][Pip][ξAsp(βξ-Me)]DGDG[ξAbu(βξ-NH2)]([CO-NH(2-CF3-phenyl)])VP; lactam 2-C; configuration not given here) was 64 µg/mL. On to `CCCCCC(=O)Nc1cc(NC(=O)CCCCC)cc(C(=O)NC(CC(=O)O)C(=O)NC2C(=O)N3CCCCC3C(=O)NC(C(C)C(=O)O)C(=O)NC(CC(=O)O)C(=O)NCC(=O)NC(CC(=O)O)C(=O)NCC(=O)NC(C(C)N)C(=O)NC(C(C)C)C(=O)N3CCCC3C(=O)NC2C)c1` (stereo not drawn) [Compound 319, N,N′-di-C6-(M,M-Diaminobenzoyl)-Amphomycin] (X34-D[ξAbu(βξ-NH2)][Pip][ξAsp(βξ-Me)]DGDG[ξAbu(3ξ-NH2)]VP; lactam 2-C; configuration not given here), for which the minimum inhibitory concentration (MIC) was 64 µg/mL. Turning to `CCCCCCCCCCCC(=O)Nc1cc(NC(=O)CCCCCCCCCCC)cc(C(=O)NC(CC(=O)O)C(=O)NC2C(=O)N3CCCCC3C(=O)NC(C(C)C(=O)O)C(=O)NC(CC(=O)O)C(=O)NCC(=O)NC(CC(=O)O)C(=O)NCC(=O)NC(C(C)N)C(=O)NC(C(C)C)C(=O)N3CCCC3C(=O)NC2C)c1` (stereo not drawn) [Compound 320, N,N′-di-C12-(M,M-Diaminobenzoyl)-Amphomycin] (X33-D[ξAbu(βξ-NH2)][Pip][ξAsp(βξ-Me)]DGDG[ξAbu(3ξ-NH2)]VP; lactam 2-C; configuration not given here), the MIC turned out to be 2 µg/mL.

For the compound `CCCCCCCCNC(=O)NCCC(=O)NC(CC(=O)O)C(=O)NC1C(=O)N2CCCCC2C(=O)NC(C(C)C(=O)O)C(=O)NC(CC(=O)O)C(=O)NCC(=O)NC(CC(=O)O)C(=O)NCC(=O)NC(C(C)N)C(=O)NC(C(C)C)C(=O)N2CCCC2C(=O)NC1C` (stereo not drawn) [Compound 321, CH3—(CH2)7—NH—C(═O)-(β-Ala)-Amphomycin], the minimal inhibitory concentration (MIC) is >64 µg/mL. The result for `CC(C)C1NC(=O)C(C(C)N)NC(=O)CNC(=O)C(CC(=O)O)NC(=O)CNC(=O)C(CC(=O)O)NC(=O)C(C(C)C(=O)O)NC(=O)C2CCCCN2C(=O)C(NC(=O)C(CC(=O)O)NC(=O)c2ccccc2Cc2ccccc2)C(C)NC(=O)C2CCCN2C1=O` (stereo not drawn) [Compound 323, (2-(Phenylmethyl)-Benzoyl)-Amphomycin] (X9-D[ξAbu(βξ-NH2)][Pip][ξAsp(βξ-Me)]DGDG[ξAbu(3ξ-NH2)]VP; lactam 2-C; configuration not given here) reads >64 µg/mL; that for `CC(C)C1NC(=O)C(C(C)N)NC(=O)CNC(=O)C(CC(=O)O)NC(=O)CNC(=O)C(CC(=O)O)NC(=O)C(C(C)C(=O)O)NC(=O)C2CCCCN2C(=O)C(NC(=O)C(CC(=O)O)NC(=O)c2ccc(C(C)(C)C)cc2)C(C)NC(=O)C2CCCN2C1=O` (stereo not drawn) [Compound 326, (4-Tbutylbenzoyl)-Amphomycin] ({Benzoyl(4-tBu)}-D[ξAbu(βξ-NH2)][Pip][ξAsp(βξ-Me)]DGDG[ξAbu(3ξ-NH2)]VP; lactam 2-C; configuration not given here), >64 µg/mL; that for `CC(C)C1NC(=O)C(C(C)N)NC(=O)CNC(=O)C(CC(=O)O)NC(=O)CNC(=O)C(CC(=O)O)NC(=O)C(C(C)C(=O)O)NC(=O)C2CCCCN2C(=O)C(NC(=O)C(CC(=O)O)NC(=O)c2cccc(Oc3ccccc3)c2)C(C)NC(=O)C2CCCN2C1=O` (stereo not drawn) [Compound 327, (3-(Phenoxy)-Benzoyl)-Amphomycin] ({Benzoyl(3-OPh)}-D[ξAbu(βξ-NH2)][Pip][ξAsp(βξ-Me)]DGDG[ξAbu(3ξ-NH2)]VP; lactam 2-C; configuration not given here), >64 µg/mL. With `CCCCCCCCCCCCCCC(=O)NC(CC(=O)O)C(=O)NC1C(=O)N2CCCCC2C(=O)NC(C(C)C(=O)O)C(=O)NC(CC(=O)O)C(=O)NCC(=O)NC(CC(=O)O)C(=O)NCC(=O)NC(C(C)NC(=O)[C@H](N)CN)C(=O)NC(C(C)C)C(=O)N2CCCC2C(=O)NC1C` (stereo partly drawn) [Compound 328, C15-Amphomycin-9-(D-Dap)] (Pentadecanoyl-[ξD][ξAbu(βξ-NH2)][ξPip][ξAsp(βξ-Me)][ξD]G[ξD]G[X3][ξV][ξP]; lactam 2-C), the MIC came to 2 µg/mL.

Take `CCCCCCCCCCCCCCC(=O)NC(C)C1NC(=O)CNC(=O)C(CC(=O)O)NC(=O)CNC(=O)C(CC(=O)O)NC(=O)C(C(C)C(=O)O)NC(=O)C2CCCCN2C(=O)C(NC(=O)C(CC(=O)O)NC(=O)CNC(=O)[C@@H](N)CCCCN)C(C)NC(=O)C2CCCN2C(=O)C(C(C)C)NC1=O` (stereo partly drawn) [Compound 331, Lys-Gly-Amphomycin-9-C15] (H-KG[ξD][ξAbu(βξ-NH2)][ξPip][ξAsp(βξ-Me)][ξD]G[ξD]G[ξAbu(βξ-NH2)](Pentadecanoyl)[ξV][ξP]; lactam 4-C): the MIC is >64 µg/mL. The result for `CC(C)C1NC(=O)C(C(C)N)NC(=O)CNC(=O)C(CC(=O)O)NC(=O)CNC(=O)C(CC(=O)O)NC(=O)C(C(C)C(=O)O)NC(=O)C2CCCCN2C(=O)C(NC(=O)C(CC(=O)O)NC(=O)CCCCCCCCCCOc2ccccc2)C(C)NC(=O)C2CCCN2C1=O` (stereo not drawn) [Compound 333, (11-(Phenoxy)Undecanoyl)-Amphomycin] (X13-D[ξAbu(βξ-NH2)][Pip][ξAsp(βξ-Me)]DGDG[ξAbu(3ξ-NH2)]VP; lactam 2-C; configuration not given here) reads 1 µg/mL; that for `CC(C)C1NC(=O)C(C(C)N)NC(=O)CNC(=O)C(CC(=O)O)NC(=O)CNC(=O)C(CC(=O)O)NC(=O)C(C(C)C(=O)O)NC(=O)C2CCCCN2C(=O)C(NC(=O)C(CC(=O)O)NC(=O)C23CC4CC(CC(C4)C2)C3)C(C)NC(=O)C2CCCN2C1=O` (stereo not drawn) [Compound 336] (Adamantane1carbonyl-D[ξAbu(βξ-NH2)][Pip][ξAsp(βξ-Me)]DGDG[ξAbu(3ξ-NH2)]VP; lactam 2-C; configuration not given here), >64 µg/mL.

For the compound `CCCCCCCCCCCCOc1cccc2ccc(C(=O)NC(CC(=O)O)C(=O)NC3C(=O)N4CCCCC4C(=O)NC(C(C)C(=O)O)C(=O)NC(CC(=O)O)C(=O)NCC(=O)NC(CC(=O)O)C(=O)NCC(=O)NC(C(C)N)C(=O)NC(C(C)C)C(=O)N4CCCC4C(=O)NC3C)nc12` (centres unmarked) [Compound 339, (8-Dodecyloxy-Quinoline-2-Carbonyl)-Amphomycin], the minimum inhibitory concentration (MIC) was determined as 0.5 µg/mL. The result for `CCCCCCCCCCCCCCC(=O)NC(CC(=O)O)C(=O)NC1C(=O)N2CCCCC2C(=O)NC(C(C)C(=O)O)C(=O)NC(CC(=O)O)C(=O)NCC(=O)NC(CC(=O)O)C(=O)NCC(=O)NC(C(C)NC(=O)[C@@H](N)Cc2ccccc2)C(=O)NC(C(C)C)C(=O)N2CCCC2C(=O)NC1C` (some centres unmarked) [Compound 341, C15-Amphomycin-9-Phe] reads >64 µg/mL; that for `CCCCCCCCCCCCCCC(=O)NC(CC(=O)O)C(=O)NC1C(=O)N2CCCCC2C(=O)NC(C(C)C(=O)O)C(=O)NC(CC(=O)O)C(=O)NCC(=O)NC(CC(=O)O)C(=O)NCC(=O)NC(C(C)NC(=O)CCCCCCCCCCCCCC)C(=O)NC(C(C)C)C(=O)N2CCCC2C(=O)NC1C` (centres unmarked) [Compound 342, C15-Amphomycin-9-C15], >64 µg/mL; that for `CCCCCCCCCCCCCCC(=O)NC(CC(=O)O)C(=O)NC1C(=O)N2CCCCC2C(=O)NC(C(C)C(=O)O)C(=O)NC(CC(=O)O)C(=O)NCC(=O)NC(CC(=O)O)C(=O)NCC(=O)NC(C(C)NC(=O)COCCOCCOC)C(=O)NC(C(C)C)C(=O)N2CCCC2C(=O)NC1C` (stereo not drawn) [Compound 343, C15-Amphomycin-9-([2-(2-Methoxy-Ethoxy)-Ethoxy]-Acetyl)] (Pentadecanoyl-D[ξAbu(βξ-NH2)][Pip][ξAsp(βξ-Me)]DGDG[X29]VP; lactam 2-C; configuration not given here), 64 µg/mL. As to `CCCCCCCCCC(=O)N(C)CC(=O)NC(CC(=O)O)C(=O)NC1C(=O)N2CCCCC2C(=O)NC(C(C)C(=O)O)C(=O)NC(CC(=O)O)C(=O)NCC(=O)NC(CC(=O)O)C(=O)NCC(=O)NC(C(C)N)C(=O)NC(C(C)C)C(=O)N2CCCC2C(=O)NC1C` (centres unmarked) [Compound 344, C10-Sar-Amphomycin], the MIC was >64 µg/mL.

For the compound `CCCCCCCCCCCCCC(=O)N(C)CC(=O)NC(CC(=O)O)C(=O)NC1C(=O)N2CCCCC2C(=O)NC(C(C)C(=O)O)C(=O)NC(CC(=O)O)C(=O)NCC(=O)NC(CC(=O)O)C(=O)NCC(=O)NC(C(C)N)C(=O)NC(C(C)C)C(=O)N2CCCC2C(=O)NC1C` (centres unmarked) [Compound 345, C14-Sar-Amphomycin], the minimal inhibitory concentration (MIC) worked out at 64 µg/mL.
